Measurements from ChEMBL document CHEMBL1133690, “Discovery of a potent, orally bioavailable beta(3) adrenergic receptor agonist, (R)-N-[4-[2-[[2-hydroxy-2-(3-pyridinyl)ethyl]amino]ethyl]phenyl]-4-[4 -[4-(trifluoromethyl)phenyl]thiazol-2-yl]benzenesulfonamide” (J Med Chem, 2000).

Tests used:
[1] = biological target: T1, Beta-2 adrenergic receptor (Homo sapiens, UniProt P07550); assay: biochemical
Target sequence in this assay (P07550 whole entry): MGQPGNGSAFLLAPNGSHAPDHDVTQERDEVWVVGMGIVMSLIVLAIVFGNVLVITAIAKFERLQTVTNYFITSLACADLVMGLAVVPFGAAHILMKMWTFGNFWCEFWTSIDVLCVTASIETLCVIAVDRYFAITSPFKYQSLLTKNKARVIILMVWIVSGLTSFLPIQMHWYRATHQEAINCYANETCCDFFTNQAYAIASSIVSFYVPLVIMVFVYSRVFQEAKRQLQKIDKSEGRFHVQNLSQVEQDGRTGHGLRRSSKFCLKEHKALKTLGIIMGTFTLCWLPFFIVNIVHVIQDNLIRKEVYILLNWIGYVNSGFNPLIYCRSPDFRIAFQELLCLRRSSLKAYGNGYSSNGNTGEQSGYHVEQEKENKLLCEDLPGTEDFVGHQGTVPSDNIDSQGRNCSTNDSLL
Description: Binding affinity was evaluated on chinese hamster ovary (CHO) cells expressing the cloned human beta-2 adrenergic receptor in the presence of [125I]- iodocyanopindolol.

[2] = biological target: T2, Beta-1 adrenergic receptor (Homo sapiens, UniProt P08588); assay: biochemical
Target sequence in this assay (P08588 whole entry): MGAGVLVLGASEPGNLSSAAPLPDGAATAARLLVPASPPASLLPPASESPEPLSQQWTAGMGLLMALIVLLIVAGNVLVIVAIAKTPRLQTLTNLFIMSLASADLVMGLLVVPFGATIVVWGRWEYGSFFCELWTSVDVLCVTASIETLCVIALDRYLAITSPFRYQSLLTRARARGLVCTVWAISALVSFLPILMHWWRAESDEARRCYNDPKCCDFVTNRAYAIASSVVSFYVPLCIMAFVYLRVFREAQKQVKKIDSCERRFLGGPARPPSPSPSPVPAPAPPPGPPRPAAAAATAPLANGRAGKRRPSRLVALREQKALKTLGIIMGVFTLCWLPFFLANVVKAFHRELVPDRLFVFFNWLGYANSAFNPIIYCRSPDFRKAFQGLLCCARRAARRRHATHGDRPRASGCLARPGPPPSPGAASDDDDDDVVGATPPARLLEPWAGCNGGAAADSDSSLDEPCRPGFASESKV
Description: Binding affinity was evaluated on chinese hamster ovary (CHO) cells expressing the cloned human beta-1 adrenergic receptor in the presence of [125I]- iodocyanopindolol.

[3] = biological target: T3, Beta-3 adrenergic receptor (Homo sapiens, UniProt P13945); assay: Agonistic efficacy at human beta 3 adrenergic receptor as percent adenylyl cyclase activation relative to isoproterenol; format: functional
Target sequence in this assay (P13945 whole entry, looked up): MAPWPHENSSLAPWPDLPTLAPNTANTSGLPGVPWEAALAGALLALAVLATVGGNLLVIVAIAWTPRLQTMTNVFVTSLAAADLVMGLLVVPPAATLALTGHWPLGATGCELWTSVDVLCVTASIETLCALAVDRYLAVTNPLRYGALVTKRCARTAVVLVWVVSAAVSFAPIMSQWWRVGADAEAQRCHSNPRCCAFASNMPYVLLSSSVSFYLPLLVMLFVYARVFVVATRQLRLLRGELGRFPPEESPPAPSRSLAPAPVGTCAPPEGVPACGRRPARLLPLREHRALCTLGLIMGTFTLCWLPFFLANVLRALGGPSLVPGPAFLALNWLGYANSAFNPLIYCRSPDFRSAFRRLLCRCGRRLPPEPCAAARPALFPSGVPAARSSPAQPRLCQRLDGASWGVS

[4] = biological target: T3, Beta-3 adrenergic receptor; assay: In vitro functional efficacy as increased cAMP in chinese hamster ovary (CHO) cells expressing human beta-3 receptor; format: cell-based
Target sequence in this assay (P13945 whole entry): as the sequence (P13945 whole entry, looked up) above

[5] = biological target: T2, Beta-1 adrenergic receptor; assay: Agonistic efficacy at human beta 1 adrenergic receptor was assessed from adenylyl cyclase activation given as % of the maximum stimulation with isoproterenol at 10 uM; format: functional
Target sequence in this assay (P08588 whole entry, looked up): as the sequence (P08588 whole entry) above

[6] = Volume distribution (Vdss) was measured in dog; format: ADME, organism-based, Canis lupus familiaris; conditions: in vivo, read-out: Vdss
[7] = Half life was measured in dog; format: ADME, organism-based, Canis lupus familiaris; conditions: in vivo
[8] = Area under curve determined in dogs after intravenous administration of 3 mg/kg; format: ADME, organism-based, Canis lupus familiaris; parameters: dose 3 mg/kg, route intravenous; conditions: dog, in vivo
[9] = Oral bioavailability in dog; format: ADME, organism-based, Canis lupus familiaris; conditions: in vivo
[10] = Plasma clearance was measured in dog; format: ADME, organism-based, Canis lupus familiaris; conditions: read-out: Clp
[11] = Area under curve determined in dogs after oral administration of 10 mg/kg; format: ADME, organism-based, Canis lupus familiaris; parameters: dose 10 mg/kg, route oral; conditions: dog, in vivo
[12] = biological target: T1, Beta-2 adrenergic receptor; assay: In vitro functional efficacy in stimulating increase in cAMP in chinese hamster ovary (CHO) cells expressing the cloned human beta-2 receptor.; format: cell-based
Target sequence in this assay (P07550 whole entry): as the sequence (P07550 whole entry) above

[13] = biological target: T3, Beta-3 adrenergic receptor; format: cell-based, CHO
Target sequence in this assay (P13945 whole entry): as the sequence (P13945 whole entry, looked up) above

[14] = Volume of distribution (Vdss) was measured in dog; format: ADME, organism-based, Canis lupus familiaris; conditions: in vivo, read-out: Vdss
[15] = biological target: T1, Beta-2 adrenergic receptor; assay: Agonistic efficacy at human beta 2 adrenergic receptor was assessed from adenylyl cyclase activation given as % of the maximum stimulation with isoproterenol; format: functional
Target sequence in this assay (P07550 whole entry, looked up): as the sequence (P07550 whole entry) above

[16] = biological target: T2, Beta-1 adrenergic receptor; assay: In vitro functional efficacy in stimulating increase in cAMP in chinese hamster ovary (CHO) cells expressing the cloned human beta-1 receptor.; format: cell-based
Target sequence in this assay (P08588 whole entry): as the sequence (P08588 whole entry) above

[17] = Oral bioavailability in rat (dose 10 mg/kg p.o. and 3 mg/kg i.v.); format: ADME, organism-based; conditions: in vivo
Monkey = assay: Effective dose for hyperglycerolemia producing increase in serum glycerol accompained by tachycardia in anesthetized rhesus monkeys; format: functional; conditions: Cercopithecidae, in Macaca mulatta

SMILES	IC50 [1]	IC50 [2]	ACT [3]	EC50 [4]	ACT [5]	Vd [6]	half-life [7]	AUC [8]	bioavailability [9]	clearance [10]	AUC [11]	EC50 [12]	IC50 [13]	Vd [14]	ACT [15]	EC50 [16]	bioavailability [17]	ED50 (Monkey)
O=S(=O)(Nc1ccc(CCNC[C@H](O)c2cccnc2)cc1)c1ccc(-c2nc(-c3cccc(C(F)(F)F)c3)cs2)cc1	980 nM	1800 nM	100%	6.9 nM	17%	–	–	–	–	–	–	–	–	–	–	–	–	–
O=S(=O)(Nc1ccc(CCNC[C@H](O)c2cccnc2)cc1)c1ccc(-c2nc(-c3ccccc3C(F)(F)F)cs2)cc1	1800 nM	1900 nM	82%	53 nM	–	–	–	–	–	–	–	–	–	–	–	–	–	–
O=S(=O)(Nc1ccc(CCNC[C@H](O)c2cccnc2)cc1)c1ccc(-c2nc(-c3cccc(F)c3F)cs2)cc1	760 nM	2600 nM	99%	7.6 nM	6%	–	–	–	–	–	–	–	–	–	–	–	–	–
O=S(=O)(Nc1ccc(CCNC[C@H](O)c2cccnc2)cc1)c1ccc(-c2nc(-c3cc(F)c(F)c(F)c3)cs2)cc1	5000 nM	2000 nM	100%	6.3 nM	20%	14.1 L/kg	8 h	2470 ng·h/mL	27%	20.5 mL/min/kg	2230 ng·h/mL	–	–	–	–	–	–	–
O=S(=O)(Nc1ccc(CCNC[C@H](O)c2cccnc2)cc1)c1ccc(-c2nc(-c3ccc(C(F)(F)F)cc3)cs2)cc1	–	–	94%	–	24%	31.3 L/kg	13.5 h	1930 ng·h/mL	38%	26.8 mL/min/kg	2270 ng·h/mL	2400 nM	46 nM	–	–	4800 nM	17%	0.26 mg/kg
O=S(=O)(Nc1ccc(CCNC[C@H](O)c2cccnc2)cc1)c1ccc(-c2nc(-c3ccc(OC(F)(F)F)cc3)cs2)cc1	1200 nM	8400 nM	93%	4.3 nM	24%	12.8 L/kg	10.3 h	3530 ng·h/mL	53%	14.3 mL/min/kg	6280 ng·h/mL	1400 nM	30 nM	–	18%	2700 nM	7%	0.14 mg/kg

Further compounds by falling IC50 [1], results first:

IC50 [1]	IC50 [2]	ACT [3]	EC50 [4]	ACT [5]	Vd [6]	half-life [7]	AUC [8]	bioavailability [9]	clearance [10]	AUC [11]	EC50 [12]	IC50 [13]	Vd [14]	ACT [15]	EC50 [16]	bioavailability [17]	SMILES	ED50 (Monkey)
2600 nM	2500 nM	87%	19 nM	7%	–	–	–	–	–	–	–	–	–	–	–	–	O=S(=O)(Nc1ccc(CCNC[C@H](O)c2cccnc2)cc1)c1ccc(-c2nc(-c3ccc(F)cc3F)cs2)cc1	–
1700 nM	1700 nM	92%	7.1 nM	–	–	7.5 h	1720 ng·h/mL	36%	29.3 mL/min/kg	2070 ng·h/mL	1800 nM	20 nM	19 L/kg	12%	2600 nM	–	O=S(=O)(Nc1ccc(CCNC[C@H](O)c2cccnc2)cc1)c1ccc(-c2nc(-c3ccc(F)c(F)c3)cs2)cc1	–
